Measured values published in patent publication US20130059793A1, “EGF RECEPTOR MIMICKING PEPTIDES” (BOARD OF REGENTS, THE UNIVERSITY OF TEXAS SYSTEM, priority 2010, published 2013).

Experiments:
AKT = experiment: EGF-induced phosphorylation of AKT in HN5 cells; assay type: cell-based; conditions: human HN5 head and neck cells
Description: (§1) To dissect the downstream signal transduction cascade in this setting, proliferative, survival, and migratory pathways were examined.

ERK = experiment: EGF-induced phosphorylation of ERK in HN5 cells; assay type: cell-based; conditions: human HN5 head and neck cells
Description: as §1

[1] = system: polyclonal anti-CVRAC antibodies; experiment: ELISA recognition of peptides by polyclonal anti-CVRAC antibodies (FIG. 4B); assay type: binding, rabbit
Description: (§2) A representative experiment is depicted. […] Bars represent mean±SEM. […] (FIG. 4C) Effect of the synthetic peptides on HN5 tumor cells. […] Viability in the absence of peptide was set to 100%. […] Bars represent mean±SEM. […] Receptors were immunoprecipitated with antibodies against phosphorylated (p) pEGFR and were immunoblotted with anti-phosphotyrosine IgG.
Rabbits were immunized with KLH-conjugated CVRAC and a purified antibody was obtained. […] The capacity of rabbit IgG against CVRAC to recognize CVRAC, D(CARVC), and EGFR was measured by ELISA.
(§3) The EGFR served as an immobilized positive control, and BSA or control peptides (CVAAC) served as immobilized negative controls.

[2] = target: binding of TGFα to the EGFR (Homo sapiens, UniProt P01135); experiment: Displacement of TGFα from immobilized EGFR (FIG. 6B); conditions: increasing molar concentrations
Description: (§4) The EGFR was coated onto 96-well plates at decreasing concentrations. […] D(CAAVC (SEQ ID NO:8)) was used as a negative peptidomimetic control at the same concentrations (circles). […] Bars represent mean±SEM.
(§5) Decreasing molar concentrations of EGFR were immobilized in vitro, after which the native ligand (EGF or TGFα) was used to establish the baseline for the binding of EGF to the EGFR, or of TGFα to the EGFR.

[3] = Nuclear magnetic resonance (NMR)-spectroscopy interactions; assay type: binding
EGFR = experiment: EGF-induced EGFR autophosphorylation (immunoprecipitation, anti-phosphotyrosine blot); assay type: cell-based, human; conditions: HN5 tumor cells, EGF 15 min, FIG. 4E
Description: as §2

[4] = target: binding of EGF to the EGFR (Homo sapiens, UniProt P01133); experiment: Displacement of EGF from immobilized EGFR (FIG. 6A); conditions: D(CARVC) from 30 to 1,000 mM, cetuximab 12 nM positive control
Description: as §4, §5

HN5 tumor cells = experiment: Cell viability/proliferation, MTT assay, HN5; assay type: cell-based, human; design: cell proliferation / viability: dose or concentration left out as unconfirmed
Procedure: as §2
Tumor cell lines HN5, UMSCC 10A, GEO and EF43.fgf-4 were culture in standard conditions. Viability was assessed by MTT assays (Sigma) as described (Cardó-Vila et al., 2003). […] Samples were read at 570 nm.
Tumor cell lines HN5, UMSCC 10A, GEO and EF43.fgf-4 were maintained in high-glucose DMEM, supplemented with 10% heat-inactivated fetal bovine serum, 20 mM HEPES (pH 7.4), 100 IU/ml penicillin, 100 μg/ml streptomycin, and 4 mM glutamine at 5% CO2 at 37° C. EF43.fgf-4 were grown in G418 as described (Hajitou et al., 2006).

[5] = system: EF43.fgf-4-derived tumors; experiment: Treatment of tumor-bearing mice with peptides and peptidomimetics, tumor volume; assay type: in vivo; conditions: at the end of two weeks; Balb/c mice, EF43.fgf-4 tumors; 750 μg/mouse/dose for 5 days; mean±SEM
Description: FIGS. 5A-B: CVRAC-targeted phage homes to tumor. (FIG. 5A) Targeting tumors versus control organs. […] An anti-phage antibody was used for staining H&E staining, with the corresponding fluorescence-based immunostaining, are shown in tumors (FIG. 5A). Tumor-bearing mice received CVRAC phage, CVAAC phage, or insertless control phage as indicated. Cohorts of tumor-bearing mice (n=5 mice/group) were used. A representative experiment is shown. Scale bar, 100 μm. (FIG. 5B) Treatment of tumor-bearing mice with peptides and peptidomimetics. Balb/c mice bearing EF43.fgf-4-derived tumors were divided into size-matched cohorts (n=7 mice/group); individual tumor volumes are represented before (black circles) and after (white circles). Peptides and peptidomimetics were administered at 750 μg/mouse/dose for 5 days. Shown are mean tumor volumes±SEM.
Selective phage homing to tumors was evaluated as described (Hajitou et al., 2006; Arap et al., 1998). […] Each cohort of mice (n=3 per experiment) with size-matched tumors received a set of test and control phage clones. After 6 h, tumor-bearing mice were perfused through the heart with 20 ml of PBS containing 4% paraformaldehyde (PFA). […] For experimental therapy, Balb/c mice bearing EF43.fgf-4-derived tumors were established, and tumor volumes were determined as described (Arap et al., 1998; Hajitou et al., 2006; Ciardiello et al., 1999). […]

cetuximab = experiment: Binding of synthetic peptides to cetuximab (ELISA-based, FIG. 3A, FIG. 4B); conditions: FIG. 4B (peptides plated at 10 μg/ml)
Description: BSA served as an additional negative control, and the EGFR, as a positive control. […] Insertless phage served as a negative control. […] Bars represent mean±SEM.
as §2, §3

p38 = experiment: EGF-induced phosphorylation of p38 in HN5 cells; assay type: cell-based; conditions: human HN5 head and neck cells
Description: as §1

Sequence of binding of TGFα to the EGFR (P01135 40-89 limits assumed): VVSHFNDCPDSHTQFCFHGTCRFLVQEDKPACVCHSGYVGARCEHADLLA
Sequence of binding of EGF to the EGFR (P01133 971-1023 limits assumed): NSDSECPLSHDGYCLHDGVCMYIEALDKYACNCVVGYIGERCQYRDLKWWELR

D(CARVC)
EGF-induced phosphorylation of AKT (AKT): inhibit
EGF-induced phosphorylation of ERK (ERK): inhibit
recognition by polyclonal anti-CVRAC antibodies [1]: recognized
displacement of TGFα from the EGFR [2]: concentration-dependent displacement
interactions by NMR-spectroscopy [3]: Low-affinity interactions (micromolar range)
EGF-induced tyrosine phosphorylation of the EGFR (EGFR): effectively inhibited
displacement of EGF from the EGFR [4]: concentration-dependent effect
cell proliferation / viability (HN5 tumor cells; HN5, MTT, 120 h, increasing concentrations, FIG. 4C): proliferated much less
activity on an equimolar basis compared with CVRAC (HN5 tumor cells; prolonged (120 h) functional assay): more potent
tumor volume [5]: 550±50 mm^3
binding of synthetic peptide to cetuximab (cetuximab): retained binding activity
EGF-induced phosphorylation of p38 (p38): not
